Earlier results as cited in US20150104511A1, “Pharmaceutical Antiretroviral Combinations Comprising Lamivudine, Festinavir and Nevirapine” (Cipla Limited, priority 2012, published 2015).

Assays:
[1] = target: RT (Reverse Transcriptase) (Human immunodeficiency virus type 1 group M subtype B, UniProt P04585); settings: compared to d4T-triphosphate
mtDNA pol γ = target: T1, mtDNA pol γ (Homo sapiens, UniProt P54098); settings: compared to d4T-triphosphate
T1 sequence (P54098 1-1239): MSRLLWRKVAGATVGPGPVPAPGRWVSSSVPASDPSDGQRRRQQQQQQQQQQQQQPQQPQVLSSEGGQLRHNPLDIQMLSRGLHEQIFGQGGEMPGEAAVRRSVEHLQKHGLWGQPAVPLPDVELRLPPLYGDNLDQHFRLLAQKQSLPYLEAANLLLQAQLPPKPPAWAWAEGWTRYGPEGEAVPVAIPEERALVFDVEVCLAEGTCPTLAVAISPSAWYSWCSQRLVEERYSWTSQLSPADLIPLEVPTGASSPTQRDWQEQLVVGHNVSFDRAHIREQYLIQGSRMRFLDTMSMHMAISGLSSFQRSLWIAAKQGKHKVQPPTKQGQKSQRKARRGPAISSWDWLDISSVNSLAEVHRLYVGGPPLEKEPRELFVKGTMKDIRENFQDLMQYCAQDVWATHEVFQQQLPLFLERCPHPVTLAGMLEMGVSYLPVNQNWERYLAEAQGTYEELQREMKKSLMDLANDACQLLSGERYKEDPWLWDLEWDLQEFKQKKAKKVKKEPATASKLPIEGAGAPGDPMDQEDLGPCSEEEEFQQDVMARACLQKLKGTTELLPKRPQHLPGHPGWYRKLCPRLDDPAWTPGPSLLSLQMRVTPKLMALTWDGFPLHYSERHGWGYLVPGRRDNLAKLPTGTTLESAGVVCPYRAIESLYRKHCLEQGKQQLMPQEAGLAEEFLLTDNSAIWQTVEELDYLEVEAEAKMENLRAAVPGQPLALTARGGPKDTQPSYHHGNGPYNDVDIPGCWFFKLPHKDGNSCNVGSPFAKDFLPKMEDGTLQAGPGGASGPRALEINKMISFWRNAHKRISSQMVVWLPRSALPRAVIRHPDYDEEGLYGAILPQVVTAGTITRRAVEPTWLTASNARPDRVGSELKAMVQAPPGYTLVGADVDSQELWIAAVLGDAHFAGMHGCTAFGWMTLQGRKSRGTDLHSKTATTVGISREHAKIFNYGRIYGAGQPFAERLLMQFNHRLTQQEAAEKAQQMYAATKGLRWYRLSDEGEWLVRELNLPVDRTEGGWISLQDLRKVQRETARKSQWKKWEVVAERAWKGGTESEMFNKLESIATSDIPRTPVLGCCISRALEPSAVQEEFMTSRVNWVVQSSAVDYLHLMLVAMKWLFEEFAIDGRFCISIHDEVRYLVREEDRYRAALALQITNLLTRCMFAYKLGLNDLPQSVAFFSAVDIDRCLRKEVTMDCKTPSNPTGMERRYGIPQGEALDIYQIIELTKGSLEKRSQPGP

Structure (SMILES)	increase in affinity to RT (Reverse Transcriptase) [1]	interactions with mtDNA pol γ (mtDNA pol γ)	persistence of anti-HIV activity after drug removal (HIV; compared with the other thymidine analogs)	improved potency as compared to stavudine (d4T) (HIV; relative to stavudine (d4T))	in vitro toxicity, including effects on mtDNA (mtDNA; as compared to stavudine (d4T))	cellular and mitochondrial toxicity (mtDNA; compared with stavudine (d4T))
C#C[C@@]1(COP(=O)(O)OP(=O)(O)OP(=O)(O)O)C=C[C@H](n2cc(C)c(=O)[nH]c2=O)O1 [4′-Ed4T triphosphate]	approximately 5 fold	reduces the interactions with mtDNA pol γ				
C#C[C@@]1(CO)C=C[C@H](n2cc(C)c(=O)[nH]c2=O)O1 [Festinavir, 2′,3′-didehydro-3′-deoxy-4′-ethynylthymidine]			more persistent anti-HIV activity after drug removal	5-10 fold	reduced in vitro toxicity	lower cellular and mitochondrial toxicity
